# In patent US9862730B2, “Imidazothiadiazole derivatives as protease activated receptor 4 (PAR4) inhibitors for treating platelet aggregation” (BRISTOL-MYERS SQUIBB COMPANY, priority 2012, dated 2018):
# Target: PAR4 (Homo sapiens (Human), UniProt Q96RI0)
# Assay: FLIPR assay in PAR4-expressing HEK293 cells (PAR4 antagonist activity, calcium mobilization)
# Format: cell-based
# Settings: FLIPR assay as described in Example A
# Summary of the method: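 Calcium-flux antagonist readout: compounds preincubated 30 min at room temperature with PAR4-transfected HEK293 cells in HBSS with 10 mM HEPES (0.67% DMSO final), then agonist peptide added. Agonist activity checked on compound addition; cells carry endogenous PAR1.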
# Chain of PAR4 (Q96RI0 18-385): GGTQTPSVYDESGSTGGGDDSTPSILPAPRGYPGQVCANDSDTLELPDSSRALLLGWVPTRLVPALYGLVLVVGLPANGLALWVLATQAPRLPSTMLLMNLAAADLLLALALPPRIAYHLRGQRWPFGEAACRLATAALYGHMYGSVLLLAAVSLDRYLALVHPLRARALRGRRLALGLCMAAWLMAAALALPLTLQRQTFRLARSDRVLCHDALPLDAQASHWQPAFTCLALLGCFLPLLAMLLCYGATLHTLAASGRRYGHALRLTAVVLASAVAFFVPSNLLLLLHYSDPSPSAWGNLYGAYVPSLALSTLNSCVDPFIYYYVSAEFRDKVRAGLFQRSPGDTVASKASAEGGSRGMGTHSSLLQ
row,Compound,IC50 [nM]
1,"CSc1nn2cc(-c3nc4c(OC[C@H]5CCCN5C(=O)[C@H](NC(=O)OC(C)(C)C)c5ccccc5)cccc4o3)nc2s1 [Example 333, tert-Butyl ((R)-2-((R)-2-(((2-(2-(methylthio)imidazo[2,1-b][1,3,4]thiadiazol-6-yl)benzo[d]oxazol-4-yl)oxy)methyl)pyrrolidin-1-yl)-2-oxo-1-phenylethyl)carbamate]",566
2,COc1cc(OCc2ccccc2)c2cc(-c3cn4nc(SC)sc4n3)oc2c1 [Example 227-228],4.05
3,COc1nn2cc(-c3cc4cc(F)ccc4o3)nc2s1 [Example 97],3.48
4,c1ccc2oc(-c3cn4nc(C5CC5)sc4n3)cc2c1 [Example 63],201
5,COc1nn2cc(-c3cc4c(OC)ccc(OC)c4o3)nc2s1 [Example 103],10.7
6,COc1cc(OCc2cccc(OCc3cc(Br)ccc3OC)c2)c2cc(-c3cn4nc(OC)sc4n3)oc2c1 [Example 367],4.09
7,Fc1ccc2sc(-c3cn4nc(Br)sc4n3)nc2c1 [Example 193],1040
8,Cc1cccc2cc(-c3cn4nc(C(C)(F)F)sc4n3)oc12 [Example 234],113
9,CCc1nn2cc(-c3nc4ccc(OC5CCCCC5)cc4o3)nc2s1 [Example 80],695
10,CSc1nn2cc(-c3cc4c(Br)cccc4o3)nc2s1 [Example 258],3.32
11,CC(F)(F)c1nn2cc(-c3cc4ccc(Cl)cc4o3)nc2s1 [Example 237],28.8
12,"COc1nn2cc(-c3cc4c(OCc5ccccc5)cccc4o3)nc2s1 [Example 210, 6-(4-(Benzyloxy)benzofuran-2-yl)-2-methoxyimidazo[2,1-b][1,3,4]thiadiazole]",24.5
13,CSc1nn2cc(-c3nc4ccc(Cl)cc4s3)nc2s1 [Example 188],920
14,COc1cc2oc(-c3cn4nc(C(C)F)sc4n3)cc2cc1Cl (stereo in doubt) [270A],114
15,CSc1nn2cc(-c3nc4c(OCc5cccnc5)cccc4o3)nc2s1 [Example 154],571
16,CSc1nn2cc(-c3cc4c(OCc5ccc(F)cc5)cccc4o3)nc2s1 [Example 249],19.4
17,"COc1nn2cc(-c3cc4c(OCc5ccccc5)cc(OC)c(Br)c4o3)nc2s1 [Example 226, 6-(4-(Benzyloxy)-7-bromo-6-methoxybenzofuran-2-yl)-2-methoxyimidazo[2,1-b][1,3,4]thiadiazole]",591
18,"Cc1cccc2oc(-c3cn4nc(C(C)(F)F)sc4n3)nc12 [Example 122, 2-(2-(1,1-Difluoroethyl)imidazo[2,1-b][1,3,4]thiadiazol-6-yl)-4-methylbenzo[d]oxazole]",509
19,COc1nn2cc(-c3cc4cccc(OC)c4o3)nc2s1 [Example 35],7.65
20,CCc1nn2cc(-c3nc4ccc(OCC5CCCCC5)cc4o3)nc2s1 [Example 76],3400
21,CCc1nn2cc(-c3nc4cc(F)ccc4o3)nc2s1 [Example 49],361
22,COc1cc(OCc2cccc(OCc3cc(F)cc(OCc4ccccc4)c3)c2)c2cc(-c3cn4nc(OC)sc4n3)oc2c1 [Example 395],38.3
23,"COc1cc(OCc2cccc(OCc3ccccc3)c2)c2oc(-c3cn4nc(OC)sc4n3)cc2c1 [Example 409, 6-(7-((3-(Benzyloxy)benzyl)oxy)-5-methoxybenzofuran-2-yl)-2-methoxyimidazo[2,1-b][1,3,4]thiadiazole]",3710
24,"CSc1nn2cc(-c3nc4ccccc4o3)nc2s1 [Example 110, 2-(2-(Methylthio)imidazo[2,1-b][1,3,4]thiadiazol-6-yl)benzo[d]oxazole]",213

row,Compound,IC50 [nM]
1,CSc1nn2cc(-c3cc4c(OCc5cccc(OCc6ccccc6)c5)cc(OS(=O)(=O)C(F)(F)F)cc4o3)nc2s1 [Example 420],51.1
2,COc1cc(OCc2cccc(OCc3cccc4ccccc34)c2)c2cc(-c3cn4nc(OC)sc4n3)oc2c1 [Example 310],3.45
3,Fc1ccc2cc(-c3cn4nc(C(F)(F)Cl)sc4n3)oc2c1 [Example 243],364
4,Cc1ccc2oc(-c3cn4nc(C(C)(F)F)sc4n3)cc2c1 [Example 232],152
5,"CSc1nn2cc(-c3cc4c(O)cccc4o3)nc2s1 [Example 214, 2-(2-(Methylthio)imidazo[2,1-b][1,3,4]thiadiazol-6-yl)benzofuran-4-ol]",322
6,COc1cc(OCc2cccc(OCc3ccc(OC)c(OC)c3Cl)c2)c2cc(-c3cn4nc(OC)sc4n3)oc2c1 [Example 361],1.35
7,"CSc1nn2cc(-c3nc4ccc(OCCN5CCCC5)cc4o3)nc2s1 [Example 114, 2-(2-(Methylthio)imidazo[2,1-b][1,3,4]thiadiazol-6-yl)-6-(2-(pyrrolidin-1-yl)ethoxy)benzo[d]oxazole]",206
8,Fc1ccc2cc(-c3cn4nc(Br)sc4n3)oc2c1 [Example 264],37.8
9,CC(F)(F)c1nn2cc(-c3cc4ccc(OCc5ccccc5)cc4o3)nc2s1 [Example 241],290
10,CSc1nn2cc(-c3cc4ccc(C)cc4o3)nc2s1 [Example 21],22.1
11,COc1cc(OCc2cccc(OCc3cccnc3C)c2)c2cc(-c3cn4nc(OC)sc4n3)oc2c1 [Example 308],187
12,COc1nn2cc(-c3nc4c(OC(F)(F)F)cccc4s3)nc2s1 [Example 195],2420
13,COc1cc(COc2cccc(COc3cc(OC)cc4oc(-c5cn6nc(OC)sc6n5)cc34)c2)cc(OC)c1 [Example 390],1.6
14,CSc1nn2cc(-c3nc4c(Cl)cccc4s3)nc2s1 [Example 187],771
15,CSc1nn2cc(-c3nc4ccc(OCc5cccnc5)cc4o3)nc2s1 [Example 145],286
16,CCc1nn2cc(-c3nc4ccc(OCc5ccccc5)cc4o3)nc2s1 [Example 67],103
17,"CSc1nn2cc(-c3cc4c(Cl)nccc4o3)nc2s1 [Example 221, 4-Chloro-2-(2-(methylthio)imidazo[2,1-b][1,3,4]thiadiazol-6-yl)furo[3,2-c]pyridine]",12.5
18,COc1nn2cc(-c3cc4cccc(F)c4o3)nc2s1 [Example 263],20.7
19,CCc1nn2cc(-c3nc4ccc(OCc5ccccc5Cl)cc4o3)nc2s1 [Example 81],507
20,COc1cc(OCc2cccc(OCc3ccc(OCc4ccccc4)cc3)c2)c2cc(-c3cn4nc(OC)sc4n3)oc2c1 [Example 366],164
21,CSc1nn2cc(-c3cc4c(C)cc(C)cc4o3)nc2s1 [Example 295],12.1
22,"CSc1nn2cc(-c3nc4ccc(OC(F)(F)F)cc4s3)nc2s1 [Example 180, 2-(2-(Methylthio)imidazo[2,1-b][1,3,4]thiadiazol-6-yl)-6-(trifluoromethoxy)benzo[d]thiazole]",189
23,COc1cc(OC[C@H]2CCCN2C(=O)OC(C)(C)C)c2cc(-c3cn4nc(OC)sc4n3)oc2c1 [Example 340],2.21
24,CC(F)c1nn2cc(-c3cc4ccc(F)cc4o3)nc2s1 (stereo not drawn) [Example 245],72.3

row,Compound,IC50 [nM]
1,CSc1nn2cc(-c3nc4cc(F)ccc4o3)nc2s1 [Example 126],10.4
2,CSc1nn2cc(-c3nc4c(C)cc(Cl)cc4s3)nc2s1 [Example 192],990
3,COc1nn2cc(-c3cc4cc(Cl)ccc4o3)nc2s1 [Example 91],19.1
4,COc1nn2cc(-c3cc4cc(OC(F)(F)F)ccc4o3)nc2s1 [Example 98],187
5,COc1ccc2cc(-c3cn4nc(Br)sc4n3)oc2c1 [Example 260],4.45
6,CCOC(=O)CCCOc1cccc2cc(-c3cn4nc(CC)sc4n3)oc12 [Example 60],623
7,COc1cc(OC)c2cc(-c3cn4nc(Br)sc4n3)oc2c1 [Example 294],19.5
8,CCc1nn2cc(-c3nc4ccc(OC5CCC5)cc4o3)nc2s1 [Example 75],294
9,COc1nn2cc(-c3cc4c(OCc5cccc(OCc6ccccc6)c5)cc(C#N)cc4o3)nc2s1 [Example 417],5.02
10,CCc1nn2cc(-c3nc4ccc(OCCC(C)C)cc4o3)nc2s1 [Example 77],1370
11,CC(F)(F)c1nn2cc(-c3cc4cc(Cl)ccc4o3)nc2s1 [Example 236],159
12,COc1nn2cc(-c3nc4cc(F)ccc4s3)nc2s1 [Example 194],9.64
13,"CSc1nn2cc(-c3nc4c(OC[C@H]5CCCN5C(=O)[C@H](NC(=O)c5ccccc5)c5ccccc5)cccc4o3)nc2s1 [Example 335, N—((R)-2-((R)-2-(((2-(2-(Methylthio)imidazo[2,1-b][1,3,4]thiadiazol-6-yl)benzo[d]oxazol-4-yl)oxy)methyl)pyrrolidin-1-yl)-2-oxo-1-phenylethyl)benzamide]",537
14,COc1cc(OCc2cccc(OCc3ccccc3I)c2)c2cc(-c3cn4nc(OC)sc4n3)oc2c1 [Example 379],7.84
15,COc1cc(OCc2cccc(OCc3cc(F)cc(F)c3)c2)c2cc(-c3cn4nc(OC)sc4n3)oc2c1 [Example 311],8.82
16,COCOc1ccc2nc(-c3cn4nc(SC)sc4n3)oc2c1 [Example 162],171
17,COc1ccc2oc(-c3cn4nc(SC)sc4n3)c(C)c2c1 [Example 24],696
18,"COc1nn2cc(-c3cc4c(OCc5cccc(OCc6ccccc6)c5)cc(O)cc4o3)nc2s1 [Example 410, 4-((3-(Benzyloxy)benzyl)oxy)-2-(2-methoxyimidazo[2,1-b][1,3,4]thiadiazol-6-yl)benzofuran-6-ol]",7.79
19,CSc1nn2cc(-c3nc4c(OCC5CC5)cccc4o3)nc2s1 [Example 175],41.3
20,COc1nn2cc(-c3nc4cc(C(C)(C)C)ccc4o3)nc2s1 [Example 134],321
21,CCCCOc1cccc2cc(-c3cn4nc(CC)sc4n3)oc12 [Example 64],1590
22,CCc1nn2cc(-c3nc4ccc(OCc5ccncc5)cc4o3)nc2s1 [Example 86],1210
23,COc1cc(Br)c2oc(-c3cn4nc(SC)sc4n3)cc2c1 [Example 283],2710
24,COc1nn2cc(-c3cc4ccc(C)cc4o3)nc2s1 [Example 90],4.7
